We go through two molecules from patent EP4755890A1, “OXO-TRICYCLIC DERIVATIVE AND PHARMACEUTICAL USE THEREOF” (Haisco Pharmaceutical Group Co., Ltd., priority 2023, dated 2025).

A value given as a limit tells only on which side of the number the result lay.

For data set [1], the target named is T1, WRN protein (AA N517-P1238, ICE) (Homo sapiens, UniProt Q14191).
T1 construct: WRN protein (AA N517-P1238, ICE); purchased ICE
The data set is described as follows: Assay for ATPase activity of WRN helicase (ADP-Glo). The following applies: inhibition of ATPase activity of WRN helicase; 0.3 nM WRN, 0.2 nM DNA substrate, 10 µM ATP. In kind it is biochemical. The method, then:
The assay buffer working solution was as follows: 30 mM Tris pH 7.5 + 0.02% BSA + 2 mM MgCl2 + 50 mM NaCl + 0.1% Pluronic® F127 + 1 mM DTT. WRN protein (AA N517-P1238, ICE) was obtained through protein expression and purification in vitro. A single-stranded DNA substrate ([…]) was synthesized in vitro. 1 µL each of compounds at different concentrations, the WRN protein, and the DNA substrate, together with 2 µL of ATP, were added to a 384-well white plate. The working concentrations of the WRN protein, the DNA substrate, and the ATP were 0.3 nM, 0.2 nM, and 10 µM, respectively. The plate was incubated at room temperature for 20 minutes. After the incubation was completed, the detection was performed in accordance with the instructions of the ADP-Glo Assay Kit (Promega), and the chemiluminescence value was read.
The inhibition rate was calculated according to Formula 1, where RLUsample is the readout of the compound well, RLUmax is the readout of the DMSO control well, and RLUmin is the readout of the control well without the WRN protein. Curve fitting was performed via a four-parameter logistic model (log(inhibitor) vs. response -- Variable slope) using GraphPad Prism software, and the IC50 value was calculated. Inhibition% = (1−(RLUsample−RLUmin)/(RLUmax−RLUmin)) × 100% [formula] Table 1. Results of inhibitory activity of test compounds against ATPase activity of WRN helicase
In general terms: ADP-Glo first removes unused ATP, then detects ADP through luciferase.

The test system of the next data set is HCT-116 cells. In words: HCT-116 cell proliferation inhibition assay (CellTiter-Glo). In kind it is cell-based. The following applies: Homo sapiens, 96 h, 4 days, read-out: Inhibitory activity against HCT-116 cell proliferation IC50. The protocol: The culture conditions for HCT-116 cells were as follows: RPMI-1640 + 10% FBS + 1% penicillin-streptomycin, and the cells were cultured in an incubator with 5% CO2 at 37°C. On the first day, the HCT-116 cells in the exponential growth phase were collected and plated in 96-well cell culture plates at a density of 800 cells/well (180 µL/well). The plates were cultured overnight in an incubator with 5% CO2 at 37°C. T0 wells were plated simultaneously during the plating process. The next day, 20 µL of compounds at different concentrations were added to each well (nine compound concentration gradients, one DMSO well, and one blank well; each compound concentration was plated in triplicate), and the final concentration of DMSO in each well was 0.1%. The plates were cultured in an incubator with 5% CO2 at 37°C for 4 days. On the same day of compound addition, the T0 plate was detected using the CellTiter-Glo Kit, and the detected value was recorded as RLU0. After the culture was completed, 100 µL of detection solution (Cell Viability Assay, Promega) was added to each well. […] The chemiluminescence reading was read using a BMG microplate reader (PHERAstar FSX). […] In the formula, RLUcompound is the readout of the drug-treated group, RLUcontrol is the average value of the compound vehicle control group, and RLUBlank is the average value of the blank control group. […]
Background: In ATP-based viability assays light output follows the ATP content of the culture.

Data set [2] in a line: Beagle dog pharmacokinetic assay. Type of data set: in vivo, Beagle dogs. Conditions: po; Beagle dog plasma, i.g. (3 mg/kg). The protocol: 7.1. Experimental animals: Male Beagle dogs, about 8-13 kg, 6 Beagle dogs/compound.
7.2. Experimental method: On the day of the experiment, the Beagle dogs were randomly grouped according to their body weights. The animals were fasted with water available for 14-18 h one day before the administration, and were fed 4 h after the administration. The animals were administered according to Table 6. Table 6. Administration information
Note: Vehicle for intravenous administration: 5% DMA + 5% Solutol + 90% Saline; and vehicle for intragastric administration: 5% DMSO + 95% (20% SBE-β-CD in Saline) (DMA: dimethylacetamide; Solutol: polyethylene glycol-15-hydroxystearate; Saline: normal saline; and MC: methylcellulose)
Before and after the administration, 1 ml of blood was taken from the jugular veins or limb veins and placed in an EDTAK2 centrifuge tube. The tube was centrifuged at 5000 rpm at 4°C for 10 min, and plasma was collected. The blood collection time points for the intravenous administration group and intragastric administration group were as follows: 0, 5 min, 15 min, 30 min, 1 h, 2 h, 4 h, 6 h, 8 h, 10 h, 12 h, 24 h, and 48 h. Before analysis and detection, all samples were stored at -80°C. The samples were analyzed quantitatively by LC-MS/MS. Table 7. Pharmacokinetic parameters of test compounds in Beagle dog plasma

The next data set deals with SW48 Xenograft Tumor. In words: In vivo efficacy assay of SW48 xenograft tumor. Further details: species or system BALB/c nude mice. The following applies: after 14 days of administration. The protocol: The culture conditions for SW48 cells were as follows: Leibovitz L15 + 10% FBS + 1% penicillin-streptomycin, and the cells were cultured in an incubator without CO2 at 37°C. When the cell confluency reached 80%-90% and the cell number met the requirement, the cells were harvested and counted. 0.1 mL of SW48 cell suspension (5 × 10^6 cells) was subcutaneously inoculated into the right posterior back of female BALB/c nude mice. When the average tumor volume reached 100-150 mm^3, the mice were grouped according to their tumor volumes, with 10 animals per group. The test compounds at different dosages were administered to the animals in each group via intragastric administration once daily. The day of grouping was recorded as D0. During the experiment, the body weights and tumor diameters of the animals were measured three times a week. The tumor volume was calculated according to the formula V = 0.5 × a × b^2, where a and b represent the long diameter and short diameter of the tumor, respectively. The tumor inhibitory efficacy of the test compounds was evaluated by tumor growth inhibition rate (TGI%). [formula]

T1 sequence (Q14191 517-1238): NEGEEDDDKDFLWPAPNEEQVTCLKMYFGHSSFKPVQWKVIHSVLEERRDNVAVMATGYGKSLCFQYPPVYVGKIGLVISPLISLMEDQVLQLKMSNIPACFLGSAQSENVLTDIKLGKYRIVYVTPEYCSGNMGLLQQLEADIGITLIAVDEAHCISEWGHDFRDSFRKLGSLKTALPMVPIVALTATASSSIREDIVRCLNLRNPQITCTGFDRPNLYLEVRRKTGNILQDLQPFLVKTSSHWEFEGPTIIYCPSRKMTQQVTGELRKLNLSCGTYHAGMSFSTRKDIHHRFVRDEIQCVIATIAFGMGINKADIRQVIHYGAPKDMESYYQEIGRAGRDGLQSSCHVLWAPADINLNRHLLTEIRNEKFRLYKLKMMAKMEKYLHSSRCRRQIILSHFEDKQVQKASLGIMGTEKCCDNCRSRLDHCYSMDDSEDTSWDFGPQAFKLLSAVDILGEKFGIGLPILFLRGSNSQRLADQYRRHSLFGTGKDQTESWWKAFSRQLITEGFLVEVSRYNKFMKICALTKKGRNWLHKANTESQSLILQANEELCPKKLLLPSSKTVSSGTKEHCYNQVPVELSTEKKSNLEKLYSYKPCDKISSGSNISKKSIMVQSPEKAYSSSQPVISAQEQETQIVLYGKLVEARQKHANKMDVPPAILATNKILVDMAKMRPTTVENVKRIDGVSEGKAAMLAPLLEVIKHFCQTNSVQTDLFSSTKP

As usually defined, the AUC(0-t) is the area under the concentration-time curve up to a stated or last time point. Turning to `Cc1ncnc(C(=O)N2CCN(c3c4n(c5nc(C6=CCOCC6)nn5c3=O)[C@@H](C(=O)Nc3ccc(C(F)(F)F)cc3Cl)CCC4)CC2)c1O` [Compound 1-B], the IC50 is less than 20 nM in data set [1] and less than 100 nM in the data set with HCT-116 cells. Further, the AUC(0-t) in data set [2] stood at 19900 ng·h/mL. Besides, the “growth of SW48 tumors” value in the data set on SW48 Xenograft Tumor (intragastric once daily) is reported as “significantly inhibit”. Further, the tumor shrinkage result in the data set on SW48 Xenograft Tumor (dosage group of 15 mg/kg) and in the data set with SW48 Xenograft Tumor (dosage group of 50 mg/kg) was “tumor shrinkage can be observed” in each case.
As to `Cc1ncnc(C(=O)N2[C@@H](C)CN(c3c4n(c5nc(C6=CCOCC6)nn5c3=O)[C@@H](C(=O)Nc3ccc(C(F)(F)F)cc3Cl)CCC4)C[C@@H]2C)c1O` [Compound 20-A], in data set [2], the AUC(0-t) came out at 19700 ng·h/mL.
